This is an account of results in patent US20150038671A1, “Efficient Synthesis of CN2097 and RC7 and Their Analogs” (priority 2013, published 2015).

By half-life is commonly meant the time in which the quantity being followed falls by half. Lower therefore signals rapid decline.

Starred links: 1 amine or outer side, 2 acyl side, 3 side chain; linkers in the order of their positions; H or OH if unused. Positions of bridges follow the written chain, without caps; N, C: chain ends. Non-standard residues stand in square brackets, D forms with d. Residues, ends and D or L forms follow the SMILES beside them. Chains are numbered I, II in the order given. Dmt = Cc1cc(O)cc(C)c1C[C@H](N)C(=O)O; X1 = O=C(CCN[*:2])[*:1]

The data set in a line: Plasma stability (T1/2) in the blood plasma, HPLC analysis. Conditions: time by which the compound was degraded by enzyme to the 50% of original amount. It is filed as in vitro ADME. As to the method: The stability of CN2097 and Szeto CN2097 derivatives in blood was determined as follows.
The detection limit of CN2097 was measured by HPLC analysis. Various concentrations of CN2097 were prepared in PBS and injected in HPLC and monitored at 214 nm. The HPLC analysis of CN2097 using 50 microliter injection and detecting up to 500 micromolar. The lowest level of detection was at 2 micromolar, corresponding to 0.1 nmole or 237.68 ng (FIG. 13).
The T1/2 is the time by which the compound was degraded by enzyme to the 50% of original amount.
`CC(C)[C@H](NC(=O)[C@@H]1CCC(=O)NCCC(=O)NCCCC[C@H](NC(=O)[C@H](CCCCN)NC(=O)[C@H](Cc2ccc(O)cc2)NC(=O)[C@H](CC(N)=O)NC(=O)[C@H](CCCCN)NC(=O)[C@@H](N)CSSC[C@H](N)C(=O)N[C@@H](CCCNC(=N)N)C(=O)N[C@@H](CCCNC(=N)N)C(=O)N[C@@H](CCCNC(=N)N)C(=O)N[C@@H](CCCNC(=N)N)C(=O)N[C@@H](CCCNC(=N)N)C(=O)N[C@@H](CCCNC(=N)N)C(=O)N[C@@H](CCCNC(=N)N)C(N)=O)C(=O)N[C@@H]([C@@H](C)O)C(=O)N1)C(=O)O` [CN2097] (I: H-CKNYKKTEV-OH / II: H-CRRRRRRR-NH2; disulfide I:1-II:1; linker I:6-I:8 via X1): the half-life was ~48.2 min.
To `CC(C)[C@H](NC(=O)[C@@H]1CCC(=O)NCCC(=O)NCCCC[C@H](NC(=O)[C@H](CCCCN)NC(=O)[C@H](Cc2ccc(O)cc2)NC(=O)[C@H](CC(N)=O)NC(=O)[C@H](CCCCN)NC(=O)[C@@H](N)CS)C(=O)N[C@@H]([C@@H](C)O)C(=O)N1)C(=O)O` [CN, Cys-Lys-Asn-Tyr-Lys-[Lys-Thr-Glu(β Ala)]-Val (NH2-CKNYK-[KTE(β-A)]V—OH)] (H-CKNYKKTEV-OH; linker 6-8 via X1) belongs ~28 min; to `Cc1cc(O)cc(C)c1C[C@H](N)C(=O)N[C@H](CCCNC(=N)N)C(=O)N[C@@H](Cc1ccccc1)C(=O)N[C@@H](CCCCN)C(=O)N[C@@H](CSSC[C@H](N)C(=O)N[C@@H](CCCCN)C(=O)N[C@@H](CC(N)=O)C(=O)N[C@@H](Cc1ccc(O)cc1)C(=O)N[C@@H](CCCCN)C(=O)N[C@H]1CCCCNC(=O)CCNC(=O)CC[C@@H](C(=O)N[C@H](C(=O)O)C(C)C)NC(=O)[C@H]([C@@H](C)O)NC1=O)C(N)=O` [Sezto-CN] (I: H-CKNYKKTEV-OH / II: H-[Dmt][dR]FKC-NH2; disulfide I:1-II:5; linker I:6-I:8 via X1), ~43.2 min.
